Data reported in patent US20260184707A1, “PHARMACEUTICAL COMPOUNDS FOR THE TREATMENT OF COMPLEMENT MEDIATED DISORDERS” (ALEXION PHARMACEUTICALS, INC., priority 2022, published 2026).

Biological target: T1, Human complement C1s enzyme (Homo sapiens, UniProt P09871)
T1 construct: purified from human serum, Complement Technology, Inc; purchased Complement Technology, Inc; host or cells: human serum (plasma-derived native protein)
T1 sequence (P09871 438-688 limits assumed): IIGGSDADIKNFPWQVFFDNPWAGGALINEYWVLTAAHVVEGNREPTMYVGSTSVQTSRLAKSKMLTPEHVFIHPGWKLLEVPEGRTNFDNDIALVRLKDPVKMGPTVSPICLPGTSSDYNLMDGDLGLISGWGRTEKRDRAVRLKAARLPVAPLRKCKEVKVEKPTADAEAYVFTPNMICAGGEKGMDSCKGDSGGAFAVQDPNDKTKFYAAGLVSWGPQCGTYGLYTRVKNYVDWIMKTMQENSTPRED
T1 sequence (P09871 16-437 partner limits assumed): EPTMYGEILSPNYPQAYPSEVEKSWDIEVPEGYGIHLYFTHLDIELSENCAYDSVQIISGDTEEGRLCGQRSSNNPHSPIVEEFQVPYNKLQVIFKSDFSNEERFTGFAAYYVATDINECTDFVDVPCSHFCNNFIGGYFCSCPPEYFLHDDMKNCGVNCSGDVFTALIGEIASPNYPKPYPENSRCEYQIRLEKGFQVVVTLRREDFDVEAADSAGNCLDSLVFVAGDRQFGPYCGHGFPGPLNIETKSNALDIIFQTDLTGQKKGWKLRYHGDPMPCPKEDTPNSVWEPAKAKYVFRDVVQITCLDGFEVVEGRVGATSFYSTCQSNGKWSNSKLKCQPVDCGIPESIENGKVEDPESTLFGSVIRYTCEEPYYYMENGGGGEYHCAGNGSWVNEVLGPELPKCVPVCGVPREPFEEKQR
Assay: Human C1s enzyme assay
Assay type: biochemical
Details: human complement C1s enzyme 1.16 nM, substrate Z-L-Lys-SBzl, A405; read-out: IC50 (Stars)
Method in brief: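 Thioesterase activity followed colorimetrically (DTNB, A405, 30-s reads) using 100 μM Z-L-Lys-SBzl substrate. Enzyme, human serum-derived C1s at 1.16 nM final, was incubated with test compound for 5 min, room temperature, pH 7.5 Tris buffer with 1 M NaCl. Rate-versus-concentration data fitted by nonlinear regression for IC50.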

IC50 [nM]	SMILES
100 to 1000	C[C@@H](Nc1cnc(C2CC2)n(CC(=O)NCc2cc3cnccc3[nH]2)c1=O)c1ccc2oc3ccccc3c2c1 [Compound 342, (R)-N-((1H-pyrrolo[3,2-c]pyridin-2-yl)methyl)-2-(2-cyclopropyl-5-((1-(dibenzo [b,d]furan-2-yl)ethyl)amino)-6-oxo-pyrimidin-1(6H)-yl)-acetamide]
100 to 1000	C[C@@H](Nc1cnc(OC2CC2)n(CC(=O)NCc2cc3cnccc3[nH]2)c1=O)c1ccc2oc3ccccc3c2c1 [Compound 343, (R)—N-((1H-pyrrolo[3,2-c]pyridine-2-yl)methyl)-2-(2-cyclopropoxy-5-((1-(dibenzo[b,d]furan-2-yl)ethyl)amino)-6-oxopyrimidin-1(6H)-yl)acetamide]
< 100	C[C@@H](Nc1cnc(N2CCOCC2)n(CC(=O)NCc2cc3cnccc3[nH]2)c1=O)c1ccc2oc3ccccc3c2c1 [Compound 344, (R)-N-((1H-pyrrolo[3,2-c]pyridin-2-yl)methyl)-2-(5-((1-(dibenzo[b,d]furan-2-yl)ethyl)-amino)-2-morpholino-6-oxo-pyrimidin-1(6H)-yl)acetamide]
< 100	C[C@@H](Nc1cnc(-c2ccc(S(F)(F)(F)(F)F)cc2)n(CC(=O)NCc2cc3cnccc3[nH]2)c1=O)c1ccc2oc3ccccc3c2c1 [Compound 345, (R)-N-((1H-pyrrolo[3,2-c]pyridin-2-yl)methyl)-2-(5-((1-(dibenzo[b,d]furan-2-yl)ethyl)-amino)-6-oxo-2-(4-(penta-fluoro-lambda6-sulfaneyl)-phenyl)pyrimidin-1(6H)-yl)-acetamide]
100 to 1000	C[C@@H](Nc1cncn(CC(=O)NCc2cc3cnccc3[nH]2)c1=O)c1ccc2c(c1)-c1ccccc1C2(F)F [Compound 346, (R)-N-((1H-pyrrolo[3,2-c]pyridin-2-yl)methyl)-2-(5-((1-(9,9-difluoro-9H-fluoren-3-yl)-ethyl)amino)-6-oxopyrimidin-1(6H)-yl)acetamide]
< 100	C[C@@H](Nc1cnc(-c2ccccc2)n(CC(=O)NCc2cc3cnccc3[nH]2)c1=O)c1coc(-c2ccccc2)n1 [Compound 347, (R)-N-((1H-pyrrolo[3,2-c]pyridin-2-yl)methyl)-2-(6-oxo-2-phenyl-5-((1-(2-phenyloxa-zol-4-yl)ethyl)amino)pyrimi-din-1(6H)-yl)acetamide]
< 100	C[C@@H](Nc1ncc(-c2ccccc2)n(CC(=O)NCc2cc3cnccc3[nH]2)c1=O)c1ccc2oc3ccccc3c2c1 [Compound 348, (R)-N-((1H-pyrrolo[3,2-c]pyridin-2-yl)methyl)-2-(3-((1-(dibenzo[b,d]furan-2-yl)ethyl)-amino)-2-oxo-6-phenylpyr-azin-1(2H)-yl)acetamide]
< 100	Cc1cnc(N[C@H](C)c2ccc3oc4ccccc4c3c2)c(=O)n1CC(=O)NCc1cc2cnccc2[nH]1 [Compound 349, (R)-N-((1H-pyrrolo[3,2-c]pyridin-2-yl)methyl)-2-(3-((1-(dibenzo[b,d]furan-2-yl)ethyl)-amino)-6-methyl-2-oxopyr-azin-1(2H)-yl)acetamide]
< 100	C[C@@H](Nc1cnc(-c2ccccc2F)n(CC(=O)NCc2cc3cnccc3[nH]2)c1=O)c1ccc2c(c1)oc1ccccc12 [Compound 350, (R)—N-((1H-pyrrolo[3,2-c]pyridine-2-yl)methyl)-2-(5-((1-(dibenzo[b,d]furan-3-yl)ethyl)amino)-2-(2-fluorophenyl)-6-oxopyrimidin-1(6H)-yl)acetamide]
100 to 1000	C[C@@H]1CN(c2ncc(N[C@H](C)c3ccc4oc5ccccc5c4c3)c(=O)n2CC(=O)NCc2cc3cnccc3[nH]2)C[C@@H](C)O1 [Compound 355, N-((1H-pyrrolo[3,2-c]pyridin-2-yl)methyl)-2-(5-(((R)-1-(dibenzo[b,d]furan-2-yl)ethyl)-amino)-2-((2R,6R)-2,6-dimeth-ylmorpholino)-6-oxopyrimidin-1(6H)-yl)acetamide]
> 1000	Cc1ccccc1-c1ncc(N[C@H](C)c2ccc3oc4ccccc4c3c2)c(=O)n1CC(=O)NCc1cc2cnccc2[nH]1 [Compound 356, 2-[5-[[(1R)-1-dibenzofuran-2-ylethyl]amino]-2-(o-tolyl)-6-oxo-pyrimidin-1-yl]-N-(1H-pyrrolo[3,2-c]pyridine-2-ylmethyl)acetamide]
< 100	C[C@@H](Nc1cnc(-c2cncs2)n(CC(=O)NCc2cc3cnccc3[nH]2)c1=O)c1ccc2oc3ccccc3c2c1 [Compound 358, (R)-N-((1H-pyrrolo[3,2-c]pyridin-2-yl)methyl)-2-(5-((1-(dibenzo[b,d]furan-2-yl)ethyl)-amino)-6-oxo-2-(thiazol-5-yl)-pyrimidin-1(6H)-yl)acetamide]
< 100	C[C@@H](Nc1cnc(-c2ccccc2)n(CC(=O)NCc2cc3cnccc3[nH]2)c1=O)c1ccc2c(c1)-c1ccccc1C2(F)F [Compound 359, (R)-N-((1H-pyrrolo[3,2-c]pyridin-2-yl)methyl)-2-(5-((1-(9,9-difluoro-9H-fluoren-3-yl)-ethyl)amino)-6-oxo-2-phenyl-pyrimidin-1(6H)-yl)acetamide]
< 100	C[C@@H](Nc1cnc(-c2cn[nH]c2)n(CC(=O)NCc2cc3cnccc3[nH]2)c1=O)c1ccc2oc3ccccc3c2c1 [Compound 360, (R)—N-((1H-pyrrolo[3,2-c]pyridin-2-yl)methyl)-2-(5-((1-(dibenzo[b,d]furan-2-yl)ethyl)amino)-6-oxo-2-(1H-pyrazol-4-yl)pyrimidin-1(6H)-yl)acetamide]
< 100	C[C@@H](Nc1cnc(N2CCCCC2)n(CC(=O)NCc2cc3cnccc3[nH]2)c1=O)c1ccc2oc3ccccc3c2c1 [Compound 361, (R)-N-((1H-pyrrolo[3,2-c]pyridin-2-yl)methyl)-2-(5-((1-(dibenzo[b,d]furan-2-yl)ethyl)-amino)-6-oxo-2-(piperidin-1-yl)pyrimidin-1(6H)-yl)acet-amide]
100 to 1000	C[C@@H](Nc1cncn(CC(=O)NCc2cc3cnccc3[nH]2)c1=O)c1coc(-c2ccccc2)n1 [Compound 362, (R)-N-((1H-pyrrolo[3,2-c]pyridin-2-yl)methyl)-2-(6-oxo-5-((1-(2-phenyloxazol-4-yl)-ethyl)amino)pyrimidin-1(6H)-yl)acetamide]
100 to 1000	COCc1ncc(N[C@H](C)c2ccc3oc4ccccc4c3c2)c(=O)n1CC(=O)NCc1cc2cnccc2[nH]1 [Compound 365, (R)—N-((1H-pyrrolo[3,2-c]pyridine-2-yl)methyl)-2-(5-((1-(dibenzo[b,d]furan-2-yl)ethyl)amino)-2-(methoxymethyl)-6-oxopyrimidin-1(6H)-yl)acetamide]
> 1000	C[C@@H](Nc1cn(C)c(=O)n(CC(=O)NCc2cc3cnccc3[nH]2)c1=O)c1ccc2oc3ccccc3c2c1 [Compound 366, (R)—N-((1H-pyrrolo[3,2-c]pyridine-2-yl)methyl)-2-(5-((1-(dibenzo[b,d]furan-2-yl)ethyl)amino)-3-methyl-2,6-dioxo-3,6-dihydropyrimidin-1(2H)-yl)acetamide]
> 1000	C[C@@H](Nc1cnc(N2CCCC2)n(CC(=O)NCc2cc3cnccc3[nH]2)c1=O)c1ccc2oc3ccccc3c2c1 [Compound 367, (R)—N-((1H-pyrrolo[3,2-c]pyridin-2-yl)methyl)-2-(5-((1-(dibenzo[b,d]furan-2-yl)ethyl)amino)-6-oxo-2-(pyrrolidin-1-yl)pyrimidin-1(6H)-yl)acetamide]
> 1000	C[C@@H](Nc1cnc(N2CC(F)C2)n(CC(=O)NCc2cc3cnccc3[nH]2)c1=O)c1ccc2oc3ccccc3c2c1 [Compound 368, (R)-N-((1H-pyrrolo[3,2-c]pyridin-2-yl)methyl)-2-(5-((1-(dibenzo[b,d]furan-2-yl)ethyl)-amino)-2-(3-fluoroazetidin-1-yl)-6-oxopyrimidin-1(6H)-yl)-acetamide]
100 to 1000	C[C@@H](Nc1cnc(N2CCC(O)C2)n(CC(=O)NCc2cc3cnccc3[nH]2)c1=O)c1ccc2oc3ccccc3c2c1 (stereo partly drawn) [Compound 369, N-((1H-pyrrolo[3,2-c]pyridin-2-yl)methyl)-2-(5-(((R)-1-(dibenzo[b,d]furan-2-yl)ethyl)-amino)-2-(3-hydroxypyrroli-din-1-yl)-6-oxopyrimidin-1(6H)-yl)acetamide]
100 to 1000	C[C@@H](Nc1cnc(N2CCCC(O)C2)n(CC(=O)NCc2cc3cnccc3[nH]2)c1=O)c1ccc2oc3ccccc3c2c1 (stereo partly drawn) [Compound 370, N-((1H-pyrrolo[3,2-c]pyridin-2-yl)methyl)-2-(5-(((R)-1-(dibenzo[b,d]furan-2-yl)ethyl)-amino)-2-(3-hydroxypiperidin-1-yl)-6-oxopyrimidin-1(6H)-yl)acetamide]
> 1000	C[C@@H](Nc1cnc(N2CC3CC3C2)n(CC(=O)NCc2cc3cnccc3[nH]2)c1=O)c1ccc2oc3ccccc3c2c1 (stereo partly drawn) [Compound 371, N-((1H-pyrrolo[3,2-c]pyridin-2-yl)methyl)-2-(2-(3-azabicyclo [3.1.0]hexan-3-yl)-5-(((R)-1-(dibenzo[b,d]furan-2-yl)ethyl)-amino)-6-oxopyrimidin-1(6H)-yl)acetamide]
